Laboratory results from US20220057405A1, “CELLS AND METHODS FOR EVALUATING THE ACTIVITY OF ORGANIC ANION TRANSPORTING POLYPEPTIDE 2A1 (OATP2A1)” (ABSORPTION SYSTEMS LLC, priority 2019, published 2022).
Read-outs that look alike come from different tables or passages of the source.

Assays:
HEK293-VC-Neo cells = test: Cellular uptake of fluorescent substrate by vector control cells; format: cell-based, human; settings: first 30 min of the assay (FIG. 6A, pH 7.5)
Procedure: (§1) Assay procedure—HEK293-OATP2A1 cells and the vector control HEK293-VC-Neo cells were plated at 250,000 cells per well on 24 well poly-D-Lysine coated (BioCoat™) plates (Corning) in complete DMEM medium and grown for 48 hrs at 37 C.
[…] For incubations with 6-CF, 1×HBSS pH 5.6 was used without pH adjustment. For the uptake of 5,6-carboxy-SNARF-1, the pH of 1×HBSS was adjusted to 7.4 with Bis-Tris/HCl. After the incubation, the media was aspirated, the cells were washed twice with ice-cold HBSS and lysed with 450 μL of the lysis buffer without the protease inhibitors. […] Fluorescence intensities were measured using λex 483(14) nm and λem 530(30) for 6-CF and λex 576(15) nm and λem 640(10) for 5,6-carboxy-SNARF-1 on a CLARIOstar® multimode microplate reader (BMG LABTECH). 20 μL of the samples used for fluorescence measurement were transferred into clear polystyrene flat-bottom 96-well plates (Thermo Fisher Scientific) and protein concentration was determined.
Concentrations of the fluorescent substrates of OATP2A1 in cell lysates were determined by measuring fluorescence intensities of the lysates and calculating concentrations of either 6-CF or 5,6-carboxy-SNARF-1 using linear calibration curves obtained from fluorescence intensities of the standard solutions of the fluorescent probes prepared in the same lysis buffer on the same 96-well assay plate. […]

OATP2A1 [1] = biological target: T1, OATP2A1 (Homo sapiens, UniProt Q92959); test: Cellular uptake assay with fluorescent substrate of OATP2A1 in HEK293-OATP2A1 cells; format: cell-based
Procedure: Key reagents—6-Carboxyfluorescein (6-CF) was purchased from Toronto Research Chemicals (Cat. No. C178325); 5,6-carboxy-SNARF-1 (5,6-Carboxy-seminaphthorhodafluor-1) was obtained from Thermo Fisher Scientific (Cat. No. C1270).
as §1
[…] For incubations with 6-CF, 1×HBSS pH 5.6 was used without pH adjustment. For the uptake of 5,6-carboxy-SNARF-1, the pH of 1×HBSS was adjusted to 7.4 with Bis-Tris/HCl. After the incubation, the media was aspirated, the cells were washed twice with ice-cold HBSS and lysed with 450 μL of the lysis buffer without the protease inhibitors. Two 150-μL samples from each well of the 24-well plates were taken and transferred into separate wells on black opaque 96-well Opti-plates (PerkinElmer). Fluorescence intensities were measured using λex 483(14) nm and λem 530(30) for 6-CF and λex 576(15) nm and λem 640(10) for 5,6-carboxy-SNARF-1 on a CLARIOstar® multimode microplate reader (BMG LABTECH). 20 μL of the samples used for fluorescence measurement were transferred into clear polystyrene flat-bottom 96-well plates (Thermo Fisher Scientific) and protein concentration was determined.
(§2) Concentrations of the fluorescent substrates of OATP2A1 in cell lysates were determined by measuring fluorescence intensities of the lysates and calculating concentrations of either 6-CF or 5,6-carboxy-SNARF-1 using linear calibration curves obtained from fluorescence intensities of the standard solutions of the fluorescent probes prepared in the same lysis buffer on the same 96-well assay plate. In order to account for differences in cell densities between the wells, protein concentration in the lysates was measured and used for calculating normalized uptake of the fluorescent substrates as follows:
(§3) The IC50 values were calculated from non-linear 4-parameter fit of the % Inhibition values vs. concentration of the inhibitors using GraphPad Prism 5 software. The same software was used for obtaining KM and Vmax values from a non-linear fit of the rate vs. substrate concentration fit into classic Michaelis-Menten equation: […]
Where: • CS is the substrate concentration in cell lysate • CP is the protein concentration in cell lysate • NUTC is the normalized uptake of the substrate in the presence of test article or inhibitor • NUHEK293-VC-Neo is the uninhibited (0.1% DMSO) normalized uptake by vector control cells • NUHEK293-OAM2A1 is the uninhibited (0.1% DMSO) normalized uptake by HEK293-OATP2A1 cells • Vt is the rate of the substrate uptake expressed as Normalized Uptake • Vmax is the calculated maximal rate of the substrate uptake by HEK293-OATP2A1 cells • S is the concentration of the fluorescent substrate of OATP2A1 • KM is the calculated Michaelis constant.

OATP2A1 [2] = biological target: T1, OATP2A1; settings: published potencies of the OATP2A1 inhibitors; read-out: IC50, Literature (Kamo et al., J Pharma Sci, 2017); cited from earlier work
OATP2A1 [3] = biological target: T1, OATP2A1; test: OATP2A1 inhibition assay, cellular uptake of 5,6-Carboxy-SNARF with HEK293-OATP2A1 cells; format: cell-based; settings: HEK293-OATP2A1 cells, 5,6-Carboxy-SNARF substrate, pH 7.4
Procedure: as §1
(§4) Cellular uptake of the fluorescent substrates 6-CF and 5,6-carboxy-SNARF-1 was assessed by incubating the HEK293-OATP2A1 and HEK293-VC-Neo cells with 10 μM 6-CF and 5 μM 5,6-carboxy-SNARF-1 for 15 and 20 min, correspondingly. For incubations with 6-CF, 1×HBSS pH 5.6 was used without pH adjustment. For the uptake of 5,6-carboxy-SNARF-1, the pH of 1×HBSS was adjusted to 7.4 with Bis-Tris/HCl. After the incubation, the media was aspirated, the cells were washed twice with ice-cold HBSS and lysed with 450 μL of the lysis buffer without the protease inhibitors. Two 150-μL samples from each well of the 24-well plates were taken and transferred into separate wells on black opaque 96-well Opti-plates (PerkinElmer). Fluorescence intensities were measured using λex 483(14) nm and λem 530(30) for 6-CF and λex 576(15) nm and λem 640(10) for 5,6-carboxy-SNARF-1 on a CLARIOstar® multimode microplate reader (BMG LABTECH). 20 μL of the samples used for fluorescence measurement were transferred into clear polystyrene flat-bottom 96-well plates (Thermo Fisher Scientific) and protein concentration was determined.
All compounds were acquired from Sigma-Aldrich as solid powders and 10 mM stocks were made either in DMSO or HBSS (see Table 1). Serial dilutions of the compounds were made using 3.162-fold […] dilution factor either with DMSO or HBSS at the concentrations 1,000 higher than the final concentrations in the assay. These 1,000× solutions were further diluted 1:100 with HBSS in 2-mL polypropylene deep 96-well block (VWR) to make 10× working stock solutions of the inhibitors.
HEK293-OATP2A1 and HEK293-VC-Neo cells were cultured. The media was aspirated and 800 μL of HBSS was added to each well followed by the addition of 100 μL of the 10× working stock solutions of the inhibitors. The plates were incubated for 5 min at RT, and the assay was started by the addition of 100 μL of either 100 μM 6-CF or 50 μM 5,6-carboxy-SNARF-1 in HBSS.
as §2
(§5) Using uninhibited normalized uptake values obtained with HEK293-OATP2A1 and HEK293-VC-Neo cells in 0.1% DMSO in HBSS as the high and low controls of the assay, the % Control and % Inhibition values were calculated as follows: […]
as §3

OATP2A1 [4] = biological target: T1, OATP2A1; test: OATP2A1 inhibition assay, cellular uptake of 6-CF with HEK293-OATP2A1 cells; format: cell-based; settings: 6-CF substrate, pH 5.5
Procedure: as §1, §4
All compounds were acquired from Sigma-Aldrich as solid powders and 10 mM stocks were made either in DMSO or HBSS (see Table 1). Serial dilutions of the compounds were made using 3.162-fold […] dilution factor either with DMSO or HBSS at the concentrations 1,000 higher than the final concentrations in the assay. […]
as §2, §5
The IC50 values were calculated from non-linear 4-parameter fit of the % Inhibition values vs. concentration of the inhibitors using GraphPad Prism 5 software. […]

Compound | IC50 (OATP2A1 [3]) | IC50 (OATP2A1 [4]) | IC50 (OATP2A1 [2]) | further results
5,6-Carboxy-seminaphthorhodafluor-1 [5,6-Carboxy-SNARF] |  |  |  | initial rate of the uptake (HEK293-VC-Neo cells): 0.7 pmol/mg/min; S:B in uptake assay (OATP2A1 [1]; HEK293-OATP2A1 cell line, time-course, pH 7.5 (FIG. 6A)): 142; initial rate of the uptake (OATP2A1 [1]; HEK293-OATP2A1 cells, first 30 min of the assay (FIG. 6A, pH 7.5)): 99.1 pmol/mg/min; Km (OATP2A1 [1]; OATP2A1-mediated uptake in HEK293-OATP2A1 cell line, Michaelis-Menten fit (FIG. 5)): 29 ± 9 µM; transporter specificity (OATP2A1 [1]; OATP2A1 vs. OATP2B1 transporters (FIG. 4A)): specific for OATP2A1 vs. OATP2B1
O=C(O)c1ccc2c(c1)C1(OC2=O)c2ccc(O)cc2Oc2cc(O)ccc21 [Compound 6-CF, 6-Carboxyfluorescein] |  |  |  | rate of uptake by HEK293-OATP2A1 cell line compared to the control cells (OATP2A1 [1]; FIG. 2, vs vector control cells HEK-VC-Neo): ≥ 230 fold; uptake by HEK293-OATP2A1 cell line vs rate of uptake by the control cells (OATP2A1 [1]; pH 6.5 (FIG. 6B)): 233 times; uptake by HEK293-OATP2A1 cell line vs rate of uptake by the control cells (OATP2A1 [1]; sentence following the initial rates of FIG. 6A): more than 1400 times
CCCc1nc(C(C)(C)O)c(C(=O)O)n1Cc1ccc(-c2ccccc2-c2nnn[nH]2)cc1 [Olmesartan] | 554 nM | 492 nM | 970 nM | 

Further lines, with some results ahead:

IC50 (OATP2A1 [3]) | IC50 (OATP2A1 [4]) | Compound | IC50 (OATP2A1 [2]) | further results
1210 nM | 1280 nM | CCCCc1nc(Cl)c(CO)n1Cc1ccc(-c2ccccc2-c2nn[nH]n2)cc1 [Losartan] | 1760 nM | 
148 nM | 142 nM | O=C(Nc1cccc2c(=O)cc(-c3nnn[nH]3)oc12)c1ccc(OCCCCc2ccccc2)cc1 [Pranlukast] | 550 nM | 
186 nM | 222 nM | Cc1ccc(C(=O)Nc2ccc(S(=O)(=O)O)c3cc(S(=O)(=O)O)cc(S(=O)(=O)O)c23)cc1NC(=O)c1cccc(NC(=O)Nc2cccc(C(=O)Nc3cc(C(=O)Nc4ccc(S(=O)(=O)O)c5cc(S(=O)(=O)O)cc(S(=O)(=O)O)c45)ccc3C)c2)c1 [Suramin] | 170 nM | 
1110 nM |  | COc1cc(C(=O)NS(=O)(=O)c2ccccc2C)ccc1Cc1cn(C)c2ccc(NC(=O)OC3CCCC3)cc12 [Zafirlukast] | 1600 nM | 
